Assay: Single ascending dose study, plasma pharmacokinetics of Compound (1) and GHB
Assay type: in vivo, human
Settings: fasted
Procedure: The plasma concentrations of Compound (1) and GHB in plasma in healthy human subjects were measured using liquid chromatography tandem mass-spectroscopy and evaluated using PHOENIX™ WINNONLIN® version 8.1 (Pharsight Corporation, USA) and MICROSOFT® EXCEL® (Microsoft Corporation, USA).
All randomized subjects who received Compound (1), with available pharmacokinetic (PK) data and without relevant deviations interfering with the PK evaluations, were included. Subjects who received only placebo were excluded from the PK population. In addition, the PK population was used for the summaries and analyses of all PK data.
A randomized, double-blind, single-center, single ascending dose study was undertaken to evaluate the safety, tolerability, and pharmacokinetics of Compound (1) and GHB in healthy subjects.
Compound (1) was administered to randomized healthy subjects at doses from 0.1 g to 7.25 g as an aqueous solution of Compound (1) in water. The subjects fasted for at least 10 hours overnight with clear liquids allowed prior to dosing and the subjects were fasted for 4 hours after dosing.
Plasma samples were obtained at various times following oral administration and the plasma concentrations of Compound (1) and GHB were measured.

[1] = Cohort 1 (0.10 g) single oral dose
[2] = Cohort 2 (0.50 g) single oral dose
[3] = Cohort 3 (1.50 g) single oral dose
[4] = Cohort 4 (3.00 g) single oral dose
[5] = Cohort 5 (4.50 g) single oral dose
[6] = Cohort 6 (6.00 g) single oral dose

With `CC(C)[C@H](N)C(=O)OCCCC(=O)O` [Compound (1), 4-((L-valyl)oxy)butanoic acid] the “Compound (1) CL/F, Max” value [1] was 554 L/h, the “Compound (1) CL/F, Mean” value [1] was 420 L/h and the “Compound (1) CL/F, Median” value [1] was 408 L/h. The “Compound (1) CL/F, Min” value [1] was 316 L/h, the “Compound (1) plasma AUC0-inf, Max” value [1] was 316 ng·h/mL and the “Compound (1) plasma AUC0-inf, Min” value [1] was 180 ng·h/mL. For the same compound, the “Compound (1) plasma AUC0-tlast, Max” value [1] was 315 ng·h/mL, the “Compound (1) plasma AUC0-tlast, Min” value [1] was 180 ng·h/mL and the “Compound (1) plasma Cmax, Max” value [1] was 669 ng/mL. The “Compound (1) plasma Cmax, Min” value [1] was 265 ng/mL, the “Compound (1) plasma t1/2, Max” value [1] was 0.92 h and the “Compound (1) plasma t1/2, Min” value [1] was 0.48 h. The “Compound (1) CL/F, Max” value [2] was 500 L/h, the “Compound (1) CL/F, Mean” value [2] was 400 L/h and the “Compound (1) CL/F, Median” value [2] was 396 L/h. For the same compound, the “Compound (1) CL/F, Min” value [2] was 309 L/h, the “Compound (1) plasma AUC0-inf, Max” value [2] was 1620 ng·h/mL and the “Compound (1) plasma AUC0-inf, Min” value [2] was 1000 ng·h/mL. For the same compound, the “Compound (1) plasma AUC0-tlast, Max” value [2] was 1610 ng·h/mL, the “Compound (1) plasma AUC0-tlast, Min” value [2] was 998 ng·h/mL and the “Compound (1) plasma Cmax, Max” value [2] was 2470 ng/mL. For the same compound, the “Compound (1) plasma Cmax, Min” value [2] was 1160 ng/mL, the “Compound (1) plasma Tmax, Max” value [2] was 1.50 h and the “Compound (1) plasma t1/2, Max” value [2] was 1.33 h. For the same compound, the “Compound (1) plasma t1/2, Min” value [2] was 0.71 h, the “Compound (1) CL/F, Max” value [3] was 959 L/h and the “Compound (1) CL/F, Mean” value [3] was 673 L/h. For the same compound, the “Compound (1) CL/F, Median” value [3] was 553 L/h, the “Compound (1) CL/F, Min” value [3] was 468 L/h and the “Compound (1) plasma AUC0-inf, Max” value [3] was 3210 ng·h/mL. For the same compound, the “Compound (1) plasma AUC0-inf, Min” value [3] was 1500 ng·h/mL, the “Compound (1) plasma AUC0-tlast, Max” value [3] was 4040 ng·h/mL and the “Compound (1) plasma AUC0-tlast, Min” value [3] was 1500 ng·h/mL. The “Compound (1) plasma Cmax, Max” value [3] was 5530 ng/mL, the “Compound (1) plasma Cmax, Min” value [3] was 2100 ng/mL and the “Compound (1) plasma Tmax, Max” value [3] was 1.50 h. The “Compound (1) plasma t1/2, Max” value [3] was 1.11 h, the “Compound (1) plasma t1/2, Min” value [3] was 0.97 h and the “Compound (1) CL/F, Max” value [4] was 545 L/h. For the same compound, the “Compound (1) CL/F, Mean” value [4] was 413 L/h, the “Compound (1) CL/F, Median” value [4] was 408 L/h and the “Compound (1) CL/F, Min” value [4] was 318 L/h. The “Compound (1) plasma AUC0-inf, Max” value [4] was 9430 ng·h/mL, the “Compound (1) plasma AUC0-inf, Min” value [4] was 5500 ng·h/mL and the “Compound (1) plasma AUC0-tlast, Max” value [4] was 9430 ng·h/mL. For the same compound, the “Compound (1) plasma AUC0-tlast, Min” value [4] was 5500 ng·h/mL, the “Compound (1) plasma Cmax, Max” value [4] was 15200 ng/mL and the “Compound (1) plasma Cmax, Min” value [4] was 7440 ng/mL. The “Compound (1) plasma t1/2, Max” value [4] was 1.54 h, the “Compound (1) plasma t1/2, Min” value [4] was 0.78 h and the “Compound (1) CL/F, Max” value [5] was 586 L/h. For the same compound, the “Compound (1) CL/F, Mean” value [5] was 416 L/h, the “Compound (1) CL/F, Median” value [5] was 389 L/h and the “Compound (1) CL/F, Min” value [5] was 353 L/h. For the same compound, the “Compound (1) plasma AUC0-inf, Max” value [5] was 12700 ng·h/mL, the “Compound (1) plasma AUC0-inf, Min” value [5] was 7670 ng·h/mL and the “Compound (1) plasma AUC0-tlast, Max” value [5] was 12700 ng·h/mL. The “Compound (1) plasma AUC0-tlast, Min” value [5] was 7660 ng·h/mL, the “Compound (1) plasma Cmax, Max” value [5] was 16700 ng/mL and the “Compound (1) plasma Cmax, Min” value [5] was 6790 ng/mL. The “Compound (1) plasma t1/2, Max” value [5] was 1.50 h, the “Compound (1) plasma t1/2, Min” value [5] was 0.83 h and the “Compound (1) CL/F, Max” value [6] was 423 L/h. The “Compound (1) CL/F, Mean” value [6] was 340 L/h, the “Compound (1) CL/F, Median” value [6] was 334 L/h and the “Compound (1) CL/F, Min” value [6] was 232 L/h. The “Compound (1) plasma AUC0-inf, Max” value [6] was 25800 ng·h/mL, the “Compound (1) plasma AUC0-inf, Min” value [6] was 14200 ng·h/mL and the “Compound (1) plasma AUC0-tlast, Max” value [6] was 25800 ng·h/mL. For the same compound, the “Compound (1) plasma AUC0-tlast, Min” value [6] was 14200 ng·h/mL, the “Compound (1) plasma Cmax, Max” value [6] was 22900 ng/mL and the “Compound (1) plasma Cmax, Min” value [6] was 13200 ng/mL. For the same compound, the “Compound (1) plasma t1/2, Max” value [6] was 1.64 h and the “Compound (1) plasma t1/2, Min” value [6] was 0.79 h.
